This is an account of results in US20140315972A1, “RS)-2-(2-oxo-4-phenylpyrrolidin-1-yl)acetamide compound having modulatory activity with a commensurate effect, pharmaceutical substance (variants) and its application, composition (variants) thereof” (priority 2011, published 2014).

Holding throughout (assay type): in vivo
Experiment [1] relates to mice. Briefly: Hypobaric hypoxia in pressure chamber, adult mice. The note with it: for Duration of life: adult mice, hypobaric hypoxia.
For experiment [2], the system named is rats. In words: 14-day immobilization in antiorthostatic position (Ds), thymus, spleen, adrenal mass ratios Kt. The note with it: Ds-conditions; for S/A: spleen/adrenals ratio (mg/100 g baseline body weight); for S/T: spleen/thymus ratio (mg/100 g baseline body weight); for T/A: thymus/adrenals ratio (mg/100 g baseline body weight).
Experiment [3] has as its system mice. Briefly: Electric extremities pain stimulation, thresholds TA, TFC, TF.
For experiment [4], the system named is mice. In words: Benzedrine-induced stimulation of orientation-locomotor activity. The note with it: mice; Benzedrine 3.0 mg/kg alone. An excerpt: In regard to influencing the effects of Benzedrine, Phenotropil also can provide, depending on the dose, the diametrically opposite activity when in combination with psychostimulants. This fact must be taken into account in combined use of various pharmacological agents.

For experiment [5], the system named is mice. Briefly: Duration of swimming in cold (2° C.) and normal (25° C.) water. The note with it: single dose 2.5 mg/kg i.p. The method, then: Stimulatory effect on the duration of swimming in cold (2° C.) and normal (25° C.) water (Table 8.1-8.1.1) of Phenotropil (25 and 50 mg/kg) compared with the control (distilled water) and Benzedrine (2.5 mg/kg) was studied in white outbred male mice (18-26 g) compared to control (distilled water) when intraperitoneally administered, 60 min after the administration and with a course administration for 4 weeks administration on day 28 (Table 8.1.2). […] At normal temperature of water, the effect of Benzedrine was not modified and stayed at 34%.
The advantage of psychomodulator Phenotropil is obvious both with the single dose and the course use, by the effect on physical performance and stability of the body, both in normal and more adverse temperature conditions.

The test system of experiment [6] is mice. Briefly: Cross maze exploratory behavior, HEF and LEF mice. The note with it: i.p. once a day 5 days, Compounds 1 and 4 100 mg/kg, Piracetam 200 mg/kg.
Experiment [7] deals with rabbits. In words: Transcallosal stimulation induced potential (TSIP). The note with it: Piracetam 300-500, Pyritinol 50-150, Phenotropil 25-300 mg/kg.

Marks after values point to notes of the source that are not given here.

In the case of `O=C1CC(c2ccccc2)CN1` (racemic) [Fepiron, 4(R,S)-feniilpirrolidin-2-one], in experiment [1] (100 mg/kg), the “increase of survival time vs control” value worked out at 47.8%. In addition, the “effect on survival of the animals” value in experiment [1] (25-50 mg/kg) was “did not affect the survival of the animals”. Besides, the Duration of life in experiment [1] (25 mg/kg) is recorded as 2.3 ± 0.2^ min; in experiment [1] (50 mg/kg), 2.7 ± 0.2^ min; in experiment [1] (100 mg/kg), 3.4 ± 0.2 min. Further, the S/A in experiment [2] (50 mg/kg) is listed as 11.3 ± 0.3; in experiment [2] (100 mg/kg) it was 9.0 ± 0.3; in experiment [2] (200 mg/kg), 9.4 ± 0.4. Besides, the S/T in experiment [2] (50 mg/kg) stood at 5.4 ± 0.3; in experiment [2] (100 mg/kg) it was 5.4 ± 0.3; in experiment [2] (200 mg/kg), 9.5 ± 0.9. Besides, the T/A is given as 2.1 ± 0.2 in experiment [2] (50 mg/kg), 1.6 ± 0.3 in experiment [2] (100 mg/kg) and 1.0 ± 0.1 in experiment [2] (200 mg/kg). The “TA (threshold of attention) vs control” value is 0.0% in experiment [3] (25 mg/kg i.p.), “+5.0%” in experiment [3] (50 mg/kg i.p.) and “+12.5 * %” in experiment [3] (100 mg/kg i.p.). Besides, the “TFC (threshold of first cheep) vs control” value (“TFC … vs control” below) in experiment [3] (25 mg/kg i.p.) is −5.7%; in experiment [3] (50 mg/kg i.p.), “+11.4 * %”; in experiment [3] (100 mg/kg i.p.), “+2.8%”.
On to `CC(N)Cc1ccccc1` (stereo not drawn) [Benzedrine, reference compound], for which, in experiment [4], the “Number of pulses for 3 min.” value is reported as 84.3 ± 7.9 and the “Number of stand-ups for 3 min.” value was found to be 14.2 ± 1.8. The same molecule showed a Duration of swimming in experiment [5] of 160.70 ± 11.75 min. The molecule also gave a Duration of swimming in experiment [5] (water 2° C.) of 1.60 ± 0.2 min.
Consider `NC(=O)CN1CC(c2ccccc2)CC1=O` (stereo not drawn) [Fepiron (+)], for which, in experiment [2] (200 mg/kg), the S/A is 11.3 ± 0.4, the S/T is listed as 5.4 ± 0.1 and the T/A was determined as 2.1 ± 0.6.
For `NC(=O)CN1CC(c2ccccc2)CC1=O` (stereo not drawn) [Fepiron (−)], in experiment [2] (200 mg/kg), the S/A is 9.0 ± 0.5, the S/T stood at 4.9 ± 0.7 and the T/A worked out at 1.9 ± 0.3.
Take `NCC(CC(=O)O)c1ccccc1` (stereo not drawn) [Phenibut (+)]: in experiment [2] (50 mg/kg), the S/A is listed as 13.0 ± 0.1, the S/T came to 4.8 ± 0.1 and the T/A worked out at 2.7 ± 0.1.
The matching figures for `NCC(CC(=O)O)c1ccccc1` (stereo not drawn) [Phenibut (−)]: 12.0 ± 0.3, 4.8 ± 0.3 and 2.5 ± 0.3.
Consider `NC(=O)CN1CCCC1=O` [Piracetam], for which, in experiment [6] (HEF mice), the “Kt (trigger transmission coefficient)” value was found to be 3.1 ± 0.45, the “Number of compartment explorations” value is reported as 4.2 ± 0.7 // and the Number of surveillances was determined as 1.9 ± 0.2. Besides, in experiment [6] (LEF mice), the “Kt (trigger transmission coefficient)” value was determined as 2.4 ± 0.5, the “Number of compartment explorations” value was 5.3 ± 0.8 // and the Number of surveillances is recorded as 2.2 ± 0.2. Moreover, in experiment [6] (population as a whole), the “Kt (trigger transmission coefficient)” value came out at 1.3 ± 0.45, the “Number of compartment explorations” value was 4.6 ± 0.7 // and the Number of surveillances was found to be 2.0 ± 0.2. Further, in experiment [7], the “TSIP P1 + N1 amplitude” value was “++ (amplitude increase by 30 to 50%)”, the “TSIP component N1 amplitude” value is “++ (amplitude increase by 30 to 50%)”, the “TSIP component P1 amplitude” value is on record as “+++ (amplitude increase by more than 50%)” and the “TSIP component P2 amplitude” value was “+ (amplitude increase by less than 50%)”. In addition, in experiment [1] (600 mg/kg), the “shortening of survival time vs control” value came to 35.0% and the Duration of life was 1.5 ± 0.6 min. The “increase of survival time vs control” value in experiment [1] (900-2000 mg/kg) stood at 78.0%. The molecule further returned a Duration of life in experiment [1] (900 mg/kg) of 4.0 ± 0.6 min. For the same molecule, in experiment [1] (2000 mg/kg), the Duration of life came to 4.2 ± 0.4 min. Further, in experiment [2] (200 mg/kg), the S/A turned out to be 12.1 ± 1.5, the S/T is listed as 7.4 ± 0.7 and the T/A is listed as 1.6 ± 0.2. Moreover, in experiment [2] (400 mg/kg), the S/A was 10.8 ± 1.3, the S/T came to 7.2 ± 0.4 and the T/A is listed as 1.5 ± 0.1. Also, in experiment [2] (600 mg/kg), the S/A was 10.2 ± 0.1, the S/T came out at 4.0 ± 0.1 and the T/A is given as 2.6 ± 0.1. In addition, in experiment [3] (100 mg/kg), the “decrease in the aggression threshold (TF)” value was determined as 11.3%, the “lowering of threshold of emotional reactivity (TFC)” value amounted to 23.5% and the “reduction of the pain threshold (TA)” value was 43.6%. In experiment [3] (100 mg/kg i.p.), the “TA (threshold of attention) vs control” value is on record as −43.6 * %, the “TF (threshold of aggression) vs control” value is reported as −11.3 * % and the “TFC … vs control” value is recorded as −23.5 * %. Moreover, in experiment [3] (200 mg/kg), the “lowering of threshold of emotional reactivity (TFC)” value stood at 47.0% and the “reduction of the pain threshold (TA)” value is listed as 48.1%. Moreover, in experiment [3] (200 mg/kg i.p.), the “TA (threshold of attention) vs control” value is given as −48.1 * % and the “TFC … vs control” value is given as −47.0 * %. Further, the “TF (threshold of aggression) vs control” value in experiment [3] (200 mg/kg i.p., 200 mg/kg) is listed as −15.7 * %. Besides, the “TF (threshold of aggression) vs control” value in experiment [3] (200 mg/kg i.p., listed as Pyracetam, 200 mg/kg) worked out at 25.7%. The “reduction of the pain threshold (TA)” value in experiment [3] (300 mg/k (so in the source)) stood at 19.9%. Further, the “increase of aggression threshold (TF)” value in experiment [3] (300 mg/kg (so in the source)) is reported as 7.4%. In experiment [3] (400 mg/kg i.p.), the “TA (threshold of attention) vs control” value was −20.0 * %, the “TF (threshold of aggression) vs control” value is given as −7.4% and the “TFC … vs control” value was “+5.0%”.
For the molecule `Cc1ncc(CSSCc2cnc(C)c(O)c2CO)c(CO)c1O` [Pyritinol], in experiment [7], the “TSIP P1 + N1 amplitude” value is on record as “+ (amplitude increase by less than 50%)”, the “TSIP component N1 amplitude” value was “+ (amplitude increase by less than 50%)”, the “TSIP component P1 amplitude” value is given as “+ (amplitude increase by less than 50%)” and the “TSIP component P2 amplitude” value is listed as “+ (amplitude increase by less than 50%)”.
As for `CN1C(=O)CN=C(c2ccccc2)c2cc(Cl)ccc21` [Seduxen], in experiment [2] (2 mg/kg), the S/A turned out to be 7.6 ± 0.2, the S/T stood at 3.6 ± 0.1 and the T/A is reported as 2.2 ± 1.4.
As for `NCC(CC(=O)O)c1ccccc1` (stereo not drawn) [phenibut], in experiment [2] (50 mg/kg), the S/A is recorded as 10.2 ± 0.3, the S/T came to 7.6 ± 0.2 and the T/A worked out at 1.3 ± 0.6. For the same molecule, in experiment [2] (100 mg/kg), the S/A was determined as 8.0 ± 0.1, the S/T is 4.7 ± 0.1 and the T/A was 1.7 ± 0.1.
